From ChEMBL document CHEMBL1153480, “Study on the potential anti-cancer activity of phosphonium and ammonium-based ionic liquids” (2009)

Columns and labels:
Assay type in all cases: functional
[1] = system: SF-539; assay: Cytotoxicity against human SF539 cells by SRB assay; conditions: read-out: LC50 (the source's name)
[2] = system: OVCAR-5; assay: Cytotoxicity against human OVCAR5 cells by SRB assay; conditions: read-out: LC50 (the source's name)
[3] = system: SK-MEL-5; assay: cells; conditions: Homo sapiens
Description: Growth inhibition of human SK-MEL-5 cells assessed as cell growth at 10 uM by SRB assay

[4] = system: NCI/ADR-RES; assay: Cytotoxicity against human NCI/ADR-RES cells by SRB assay; conditions: read-out: LC50 (the source's name)
[5] = system: HCT-116; assay: Cytotoxicity against human HCT116 cells by SRB assay; conditions: read-out: LC50 (the source's name)
[6] = system: Malme-3M; assay: Cytotoxicity against human MALME-3M cells by SRB assay; conditions: read-out: LC50 (the source's name)
[7] = system: OVCAR-3; assay: Cytotoxicity against human OVCAR-3 cells by SRB assay; conditions: read-out: LC50 (the source's name)
[8] = system: HL-60(TB); assay: Cytotoxicity against human HL-60(TB) cells by SRB assay; conditions: read-out: LC50 (the source's name)
[9] = system: DU-145; assay: cells; conditions: Homo sapiens
Description: Growth inhibition of human DU145 cells assessed as drug level required for 50% reduction in net protein increase by SRB assay relative to control

[10] = system: EKVX; assay: Cytotoxicity against human EKVX cells by SRB assay; conditions: read-out: LC50 (the source's name)
[11] = system: HCT-15; assay: Cytotoxicity against human HCT15 cells by SRB assay; conditions: read-out: LC50 (the source's name)
[12] = system: A498; assay: Cytotoxicity against human A498 cells by SRB assay; conditions: read-out: LC50 (the source's name)
[13] = system: MDA-MB-231; assay: Cytotoxicity against human MDA-MB-231 cells by SRB assay; conditions: read-out: LC50 (the source's name)
[14] = system: SK-MEL-28; assay: Cytotoxicity against human SK-MEL-28 cells by SRB assay; conditions: read-out: LC50 (the source's name)
[15] = system: COLO 205; assay: cells; conditions: Homo sapiens
Description: Growth inhibition of human COLO205 cells assessed as drug level required for 50% reduction in net protein increase by SRB assay relative to control

[16] = system: ACHN; assay: Cytotoxicity against human ACHN cells by SRB assay; conditions: read-out: LC50 (the source's name)
[17] = system: RPMI-8226; assay: Cytotoxicity against human RPMI8226 cells by SRB assay; conditions: read-out: LC50 (the source's name)
[18] = system: NCI-H23; assay: Cytotoxicity against human NCI-H23 cells by SRB assay; conditions: read-out: LC50 (the source's name)
[19] = system: U-251; assay: Cytotoxicity against human U251 cells by SRB assay; conditions: read-out: LC50 (the source's name)
[20] = system: K562; assay: cells; conditions: Homo sapiens
Description: Growth inhibition of human K562 cells assessed as cell growth at 10 uM by SRB assay

[21] = system: SW-620; assay: cells; conditions: Homo sapiens
Description: Growth inhibition of human SW620 cells assessed as drug level required for 50% reduction in net protein increase by SRB assay relative to control

[22] = system: TK-10; assay: Cytotoxicity against human TK10 cells by SRB assay; conditions: read-out: LC50 (the source's name)
[23] = system: SK-MEL-5; assay: Cytotoxicity against human SK-MEL-5 cells by SRB assay; conditions: read-out: LC50 (the source's name)
[24] = system: NCI-H226; assay: Cytotoxicity against human NCI-H226 cells by SRB assay; conditions: read-out: LC50 (the source's name)
[25] = system: UACC-257; assay: Cytotoxicity against human UACC257 cells by SRB assay; conditions: read-out: LC50 (the source's name)
[26] = system: CCRF-CEM; assay: Cytotoxicity against human CCRF-CEM cells by SRB assay; conditions: read-out: LC50 (the source's name)
[27] = system: NCI-H322M; assay: Cytotoxicity against human NCI-H322M cells by SRB assay; conditions: read-out: LC50 (the source's name)
[28] = system: NCI-H522; assay: cells; conditions: Homo sapiens
Description: Growth inhibition of human NCI-H522 cells assessed as drug level required for 50% reduction in net protein increase by SRB assay relative to control

[29] = system: LOX IMVI; assay: Cytotoxicity against human LOXIMVI cells by SRB assay; conditions: read-out: LC50 (the source's name)
[30] = system: HOP-92; assay: Cytotoxicity against human HOP92 cells by SRB assay; conditions: read-out: LC50 (the source's name)
[31] = system: UACC-62; assay: Cytotoxicity against human UACC62 cells by SRB assay; conditions: read-out: LC50 (the source's name)
[32] = system: OVCAR-8; assay: Cytotoxicity against human OVCAR8 cells by SRB assay; conditions: read-out: LC50 (the source's name)
[33] = system: NCI-H226; assay: cells; conditions: Homo sapiens
Description: Growth inhibition of human NCI-H226 cells assessed as drug level required for 50% reduction in net protein increase by SRB assay relative to control

[34] = system: SN12C; assay: Cytotoxicity against human SN12C cells by SRB assay; conditions: read-out: LC50 (the source's name)
[35] = system: BT-549; assay: cells; conditions: Homo sapiens
Description: Growth inhibition of human BT549 cells assessed as cell growth at 10 uM by SRB assay

[36] = system: IGROV-1; assay: cells; conditions: Homo sapiens
Description: Growth inhibition of human IGROV1 cells assessed as cell growth at 10 uM by SRB assay

**Q.** What does the source list for CCCCCCCCCCCCCCCCCCPCCCCCCCCCCCCCC.O=S(=O)(NS(=O)(=O)C(F)(F)F)C(F)(F)F (stereo not drawn)?
**A.** CC50 [1]: > 100 µM; CC50 [2]: > 100 µM; growth at 10 µM [3]: -100%; CC50 [4]: > 100 µM; CC50 [5]: > 100 µM; CC50 [6]: 5.38 µM; CC50 [7]: 6.76 µM; CC50 [8]: 0.711 µM; GI50 [9]: 0.156 µM; CC50 [10]: > 100 µM; CC50 [11]: > 100 µM; CC50 [12]: > 100 µM; CC50 [13]: > 100 µM; CC50 [14]: 6.59 µM; GI50 [15]: 0.182 µM; CC50 [16]: > 100 µM; CC50 [17]: 0.098 µM; CC50 [18]: > 100 µM; CC50 [19]: 5.62 µM; growth at 10 µM [20]: 39%; GI50 [21]: 0.049 µM; CC50 [22]: > 100 µM; CC50 [23]: 0.829 µM; CC50 [24]: > 100 µM; CC50 [25]: > 100 µM; CC50 [26]: 8.46 µM; CC50 [27]: > 100 µM; GI50 [28]: 0.105 µM; CC50 [29]: 0.592 µM; CC50 [30]: > 100 µM; CC50 [31]: > 100 µM; CC50 [32]: > 100 µM; GI50 [33]: 0.105 µM; CC50 [34]: 4.44 µM

**Q.** What does the source list for CCCCCCCC[N+](C)(CCCCCCCC)CCCCCCCC.O=S(=O)([N-]S(=O)(=O)C(F)(F)F)C(F)(F)F?
**A.** CC50 [1]: 4.19 µM; CC50 [2]: 8.17 µM; growth at 10 µM [3]: -100%; CC50 [4]: 8.13 µM; CC50 [5]: 9.9 µM; CC50 [6]: 4.11 µM; CC50 [7]: 4.18 µM; CC50 [8]: 1.23 µM; GI50 [9]: 0.407 µM; CC50 [10]: 4.31 µM; CC50 [11]: 5.23 µM; CC50 [12]: 6.36 µM; CC50 [13]: 3.63 µM; CC50 [14]: 7.18 µM; GI50 [15]: 0.292 µM; CC50 [16]: 4.52 µM; CC50 [17]: 0.951 µM; CC50 [18]: 6.33 µM; CC50 [19]: 4.32 µM; growth at 10 µM [20]: 86.9%; GI50 [21]: 0.378 µM; CC50 [22]: 4.86 µM; CC50 [23]: 0.677 µM; CC50 [24]: 4.41 µM; CC50 [25]: 6.16 µM; CC50 [26]: 2.44 µM; CC50 [27]: 6.12 µM; GI50 [28]: 0.287 µM; CC50 [29]: 1.08 µM; CC50 [30]: 4.47 µM; CC50 [31]: 4.1 µM; CC50 [32]: 5.88 µM; GI50 [33]: 0.478 µM; CC50 [34]: 4.06 µM

**Q.** What does the source list for CCCCCCCCCCCCCCCCCCPCCCCCCCCCCCCCC (stereo not drawn) [MONO(OCTADECYL(TETRADECYL)PHOSPHONIUM) MONO(HEXAFLUOROPHOSPHATE(V)) MONO(TETRAFLUOROBORATE)]?
**A.** growth at 10 µM [35]: -83.5%; growth at 10 µM [3]: -69.2%; CC50 [5]: > 100 µM; CC50 [6]: > 100 µM; CC50 [7]: > 100 µM; GI50 [9]: 0.357 µM; CC50 [14]: > 100 µM; GI50 [15]: 0.243 µM; CC50 [18]: > 100 µM; growth at 10 µM [20]: 16.6%; GI50 [21]: 0.072 µM; GI50 [28]: 0.158 µM; CC50 [32]: > 100 µM; GI50 [33]: 0.189 µM; growth at 10 µM [36]: -19.6%
